Data taken from patent publication US9346830B2, “Method for producing amino acid chelate compounds, amino acid chelate compounds and use of amino acid chelate compounds” (ISF AG, priority 2011, dated 2016).

Tests used:
[1] = bulk material properties; type: physicochemical; conditions: water content <2%
Source text: The grain shape was examined with the scanning electron microscope and produced the typical, needle-shaped crystals of the glycinates and their agglomerates. With respect to the bulk material properties, the particle distribution analysis found a d50 value of 50 μm. The material is free-flowing, has a water content of <2% and is stable.

[2] = for pH value upon addition to water: 45° C., aqueous solution
Protocol: The procedure for both syntheses was identical so that they are summarized here. 54 g of CaO or respectively MgO were each subjected to a 10-minute activation. In order to have a sufficiently high operating temperature for the thermal activation, the empty mill was already brought to an operating temperature of 110° C. before the experiments. After the mechanical activation, a thermal activation of respectively 15 min. took place in both cases.

SMILES | pH value upon addition to water [2] | also measured
NCC(=O)[O-].NCC(=O)[O-].[Cu+2] [Example 1, bis (glycinato) copper] |  | stability of the material [1]: stable
[O]=[Mg] [MgO] |  | stability (non-dissolution) in the presence of HCl [2]: stable up to pH 0
NCC(=O)[O-].NCC(=O)[O-].[Ca+2] [calcium glycinate] | 7.5 | 
NCC(=O)[O-].NCC(=O)[O-].[Mg+2] [magnesium glycinate] | 8 | 
